Tests used:
[1] = system: Hepatitis C virus; experiment: Antiviral activity against HCV subtype 1a infected in Huh-7 cells assessed as reduction in viral RNA level at 84.4 uM after 8 to 10 days by quantitative PCR analysis; type: functional, Hepacivirus hominis
[2] = Cytotoxicity against human HuH7 cells after 2 days by XTT assay; type: cell-based, Huh-7
[3] = Selectivity index, ratio of CC50 for human HuH7 cells to EC50 for HCV subtype 1a; design: species or system Huh-7
[4] = system: Hepatitis C virus; experiment: Antiviral activity against HCV subtype 1a infected in Huh-7 cells assessed as reduction in viral RNA level after 8 to 10 days by quantitative PCR analysis; type: functional, organism-based, Hepacivirus hominis
[5] = system: Hepatitis C virus; experiment: Antiviral activity against HCV subtype 1a infected in Huh-7 cells assessed as reduction in viral RNA level at 69.4 uM after 8 to 10 days by quantitative PCR analysis; type: functional, Hepacivirus hominis
[6] = system: Hepatitis C virus; experiment: Antiviral activity against HCV subtype 1a infected in Huh-7 cells assessed as reduction in viral RNA level at 75.2 uM after 8 to 10 days by quantitative PCR analysis; type: functional, Hepacivirus hominis
[7] = system: Hepatitis C virus; experiment: Antiviral activity against HCV subtype 1a infected in Huh-7 cells assessed as reduction in viral RNA level at 71.4 uM after 8 to 10 days by quantitative PCR analysis; type: functional, Hepacivirus hominis
[8] = system: Hepatitis C virus; experiment: Antiviral activity against HCV subtype 1a infected in Huh-7 cells assessed as reduction in viral RNA level at 69.7 uM after 8 to 10 days by quantitative PCR analysis; type: functional, Hepacivirus hominis
[9] = system: Hepatitis C virus; experiment: Antiviral activity against HCV subtype 1a infected in Huh-7 cells assessed as reduction in viral RNA level at 79.4 uM after 8 to 10 days by quantitative PCR analysis; type: functional, Hepacivirus hominis
[10] = system: Hepatitis C virus; experiment: Antiviral activity against HCV subtype 1a infected in Huh-7 cells assessed as reduction in viral RNA level at 83.3 uM after 8 to 10 days by quantitative PCR analysis; type: functional, Hepacivirus hominis
[11] = system: Hepatitis C virus; experiment: Antiviral activity against HCV subtype 1a infected in Huh-7 cells assessed as reduction in viral RNA level at 35.6 uM after 8 to 10 days by quantitative PCR analysis; type: functional, Hepacivirus hominis
[12] = system: Hepatitis C virus; experiment: Antiviral activity against HCV subtype 1a infected in Huh-7 cells assessed as reduction in viral RNA level at 67.7 uM after 8 to 10 days by quantitative PCR analysis; type: functional, Hepacivirus hominis
[13] = system: Hepatitis C virus; experiment: Antiviral activity against HCV subtype 1a infected in Huh-7 cells assessed as reduction in viral RNA level at 66.2 uM after 8 to 10 days by quantitative PCR analysis; type: functional, Hepacivirus hominis
[14] = system: Hepatitis C virus; experiment: Antiviral activity against HCV subtype 1a infected in Huh-7 cells assessed as reduction in viral RNA level at 33.1 uM after 8 to 10 days by quantitative PCR analysis; type: functional, Hepacivirus hominis
[15] = system: Hepatitis C virus; experiment: Antiviral activity against HCV subtype 1a infected in Huh-7 cells assessed as reduction in viral RNA level at 33.1 uM after 8 to 10 days by quantitative PCR analysis in presence of ribavirin; type: functional, Hepacivirus hominis
[16] = system: Hepatitis C virus; experiment: Antiviral activity against HCV subtype 1a infected in Huh-7 cells assessed as reduction in viral RNA level at 69.6 uM after 8 to 10 days by quantitative PCR analysis; type: functional, Hepacivirus hominis
[17] = system: Hepatitis C virus; experiment: Antiviral activity against HCV subtype 1a infected in Huh-7 cells assessed as reduction in viral RNA level at 72.9 uM after 8 to 10 days by quantitative PCR analysis; type: functional, Hepacivirus hominis
[18] = system: Hepatitis C virus; experiment: Antiviral activity against HCV subtype 1a infected in Huh-7 cells assessed as reduction in viral RNA level at 41 uM after 8 to 10 days by quantitative PCR analysis; type: functional, Hepacivirus hominis
[19] = system: Hepatitis C virus; experiment: Antiviral activity against HCV subtype 1a infected in Huh-7 cells assessed as reduction in viral RNA level at 81.9 uM after 8 to 10 days by quantitative PCR analysis; type: functional, Hepacivirus hominis

SMILES	CC50 at 48 h [2] [µM]	Ratio CC50/EC50 [3]	EC50 [4] [µM]	also measured
Cc1cn([C@H]2CC=C(C(N)=O)O2)c(=O)[nH]c1=O	> 1060	>10	–	inhibition at 84.4 µM [1]: 20%
COC(=O)[C@H]1O[C@@H](n2cc(C)c(=O)[nH]c2=O)[C@H](F)[C@@H]1O	> 868	>10	43.4	inhibition at 69.4 µM [5]: 56%
[N-]=[N+]=N[C@H]1C[C@H](n2ccc(=O)[nH]c2=O)O[C@@H]1C(N)=O	> 940	>10	–	inhibition at 75.2 µM [6]: 10%
Cc1cn([C@H]2C[C@H](N=[N+]=[N-])[C@@H](C(N)=O)O2)c(=O)[nH]c1=O	> 893	>10	–	inhibition at 71.4 µM [7]: 10%
CCc1cn([C@@H]2O[C@H](C(N)=O)[C@@H](O)[C@@H]2F)c(=O)[nH]c1=O	> 871	>10	–	inhibition at 69.7 µM [8]: 20%
COC(=O)[C@@H]1C=C[C@H](n2cc(C)c(=O)[nH]c2=O)O1	> 992	>10	49.6	inhibition at 79.4 µM [9]: 58%
COC(=O)C1=CC[C@H](n2cc(C)c(=O)[nH]c2=O)O1	> 992	>10	79.4	inhibition at 79.4 µM [9]: 50%
COC(=O)[C@@H]1CC[C@H](n2ccc(=O)[nH]c2=O)O1	> 1040	>10	–	inhibition at 83.3 µM [10]: 0%
COC(=O)[C@H]1O[C@@H](n2ccc(=O)[nH]c2=O)C[C@@H]1N=[N+]=[N-]	> 890	>10	35.6	inhibition at 35.6 µM [11]: 54%
COC(=O)[C@H]1O[C@@H](n2cc(C)c(=O)[nH]c2=O)C[C@@H]1N=[N+]=[N-]	> 847	>10	33.9	inhibition at 67.7 µM [12]: 60%
CCc1cn([C@@H]2O[C@H](C(=O)OC)[C@@H](O)[C@@H]2F)c(=O)[nH]c1=O	> 829	>10	33.1	inhibition at 66.2 µM [13]: 65%; inhibition at 33.1 µM [14]: 50%; fractional inhibitory concentration index (FICI) [15]: 0.3
COC(=O)[C@H]1O[C@@H](n2ccc(=O)[nH]c2=O)[C@H](OC)[C@@H]1O	> 874	>10	69.6	inhibition at 69.6 µM [16]: 53%
COC(=O)[C@H]1O[C@@H](n2cc(C)c(=O)[nH]c2=O)C[C@@H]1Cl	> 868	>10	43.4	inhibition at 69.4 µM [5]: 58%
COC(=O)[C@H]1O[C@@H](n2ccc(=O)[nH]c2=O)[C@H](F)[C@@H]1O	> 912	>10	> 72.9	inhibition at 72.9 µM [17]: 43%
NC(=O)c1ncn([C@@H]2O[C@H](CO)[C@@H](O)[C@H]2O)n1 [RIBAVIRIN]	–	>10	–	inhibition at 41 µM [18]: 32%; inhibition at 81.9 µM [19]: 50%

— ChEMBL document CHEMBL3124855, “4'-Substituted pyrimidine nucleosides lacking 5'-hydroxyl function as potential anti-HCV agents” (Bioorg Med Chem Lett, 2014)
